Assay results taken from US7932262B2 (Novartis AG, priority 2006, dated 2011).
Read-outs that look alike come from different tables or passages of the source.

Key:
[1] = molecular target: T1, PDK1 kinase (Homo sapiens, UniProt O15530); test: PDK1 Kinase Alpha Screen Assay; assay type: biochemical; conditions: read-out: PDK1 IC50
T1 sequence (O15530 1-556): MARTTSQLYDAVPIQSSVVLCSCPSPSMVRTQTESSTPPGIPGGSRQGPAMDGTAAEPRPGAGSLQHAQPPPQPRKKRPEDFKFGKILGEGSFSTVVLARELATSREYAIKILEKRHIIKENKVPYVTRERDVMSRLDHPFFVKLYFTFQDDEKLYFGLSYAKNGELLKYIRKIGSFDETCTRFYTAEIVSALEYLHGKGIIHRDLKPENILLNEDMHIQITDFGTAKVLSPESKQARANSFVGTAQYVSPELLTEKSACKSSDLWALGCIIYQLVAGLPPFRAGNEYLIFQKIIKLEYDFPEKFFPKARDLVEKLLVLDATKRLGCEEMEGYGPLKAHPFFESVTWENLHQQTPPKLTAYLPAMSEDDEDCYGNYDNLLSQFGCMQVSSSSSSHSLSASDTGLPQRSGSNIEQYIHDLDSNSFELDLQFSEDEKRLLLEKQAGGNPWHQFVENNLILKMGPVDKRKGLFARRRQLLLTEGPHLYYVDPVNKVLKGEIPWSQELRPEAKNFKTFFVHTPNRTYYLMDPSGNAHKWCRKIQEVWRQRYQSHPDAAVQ
Procedure, shortened: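 Test compounds were incubated with PDK1 kinase, 10 uM ATP and 50 nM biotinylated peptide substrate for 3-18 hours at pH 7.5 with 2.5% DMSO. Peptide phosphorylation was then detected by AlphaScreen proximity luminescence using a phospho-(Ser/Thr) PKA substrate antibody.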

[2] = system: A2780 cells; test: Cell Proliferation Assay (Cell Titer Glo), A2780; assay type: cell-based; conditions: Homo sapiens, read-out: CPEC50 A2780
Procedure, shortened: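 Cells seeded at 1000/well, allowed to adhere 3-5 h, then exposed to DMSO-dissolved compounds for 3 days at 37° C., 5% CO2. Medium replaced before Cell Titer Glo addition; luminescence read after 10 min.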

[3] = system: PC-3 cells; test: Cell Proliferation Assay (Cell Titer Glo), PC-3 cell line; assay type: cell-based; conditions: Homo sapiens
Procedure, shortened: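 PC-3 cells, 1000 cells/well, left to adhere 3-5 h, then exposed for 3 days at 37° C to compounds as 1:3 serial dilutions from 500× DMSO stocks diluted in growth medium. Medium then replaced with fresh medium and viability read by Cell Titer Glo luminescence.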

[4] = Cell Proliferation Assay, A2780
[5] = PC-3, Cell Proliferation Assay, PC3, read-out: CPEC50 PC3
[6] = cell proliferation, A2780 cells

| IC50 [1] [µM] | IC50 ([1]; PDK1 Kinase Alpha Screen Assay) [µM] | EC50 [2, 4] [µM] | EC50 [3, 5] [µM] | EC50 [2, 6] [µM] | Compound | other results |
| --- | --- | --- | --- | --- | --- | --- |
| < 5 |  |  |  |  | CC(C)N1CCC(Oc2ccc3cnc(Nc4ccc(S(=O)(=O)N5CCOCC5)cc4)nc3c2)CC1 [Compound 54, [7-(1-Isopropyl-piperidin-4-yloxy)-quinazolin-2-yl]-[4-(morpholine-4-sulfonyl)-phenyl]-amine] | EC50 ([2]; 72 h, A2780 cells, 3 days incubation): < 5 µM; EC50 ([3]; PC-3, 72 h, PC-3 cells, 3 days incubation, read-out: CP EC50 PC3): < 5 µM |
|  | < 5 | < 5 | < 5 |  | Cc1ccc(OC2CCNCC2)c2nc(Nc3ccc(C(=O)NC4CC4)cc3)ncc12 [Compound 364, N-cyclopropyl-4-(5-methyl-8-(piperidin-4-yloxy)quinazolin-2-ylamino)benzamide] |  |
|  | < 5 | < 5 | < 5 |  | NS(=O)(=O)c1ccc(Nc2ncc3cccc(Oc4ccccc4)c3n2)cc1 [Compound 405, 4-(8-phenoxyquinazolin-2-ylamino)benzenesulfonamide] |  |
|  | < 5 | < 5 | < 5 |  | NS(=O)(=O)c1ccc(Nc2ncc3cccc(OCC4CCNCC4)c3n2)cc1 [Compound 509, 4-(8-(piperidin-4-ylmethoxy)quinazolin-2-ylamino)benzenesulfonamide] |  |
|  | < 5 | < 5 | < 5 |  | CC(C)Oc1cccc2cnc(Nc3ccc(S(N)(=O)=O)cc3)nc12 [Compound 511, 4-(8-isopropoxyquinazolin-2-ylamino)benzenesulfonamide] |  |
|  | < 5 | < 5 | < 5 |  | NS(=O)(=O)c1ccc(Nc2ncc3cccc(OC4CCCC4)c3n2)cc1 [Compound 512, 4-(8-(cyclopentyloxy)quinazolin-2-ylamino)benzenesulfonamide] |  |
|  | < 5 | < 5 | < 5 |  | CC(C)N1CCC(COc2cccc3cnc(Nc4ccc(S(N)(=O)=O)cc4)nc23)CC1 [Compound 519, 4-(8-((1-isopropylpiperidin-4-yl)methoxy)quinazolin-2-ylamino)benzenesulfonamide] |  |
|  |  | 5 to 10 | < 5 |  | CC(C)Oc1cccc2cnc(Nc3ccc(C(N)=O)cn3)nc12 [Compound 520, 6-(8-isopropoxyquinazolin-2-ylamino)nicotinamide] |  |
|  |  | 5 to 10 | < 5 |  | CC(C)Oc1cccc2cnc(Nc3ccccn3)nc12 [Compound 521, 8-isopropoxy-N-(pyridin-2-yl)quinazolin-2-amine] |  |
|  | < 5 | < 5 | < 5 |  | c1csc(-c2cc3cnc(Nc4ccc(N5CCOCC5)cc4)nc3cc2OC2CCNCC2)n1 [Compound 645, N-(4-morpholinophenyl)-7-(piperidin-4-yloxy)-6-(thiazol-2-yl)quinazolin-2-amine] |  |
|  | < 5 | < 5 | < 5 |  | C#Cc1cc2cnc(Nc3ccc(N4CCOCC4)cc3)nc2cc1OC1CCNCC1 [Compound 646, 6-Ethynyl-N-(4-morpholinophenyl)-7-(piperidin-4-yloxy)quinazolin-2-amine] |  |
|  | < 5 | < 5 | < 5 |  | Cc1cc2cnc(Nc3ccc(N4CCOCC4)cc3)nc2cc1OC1CCNCC1 [Compound 647, 6-methyl-N-(4-morpholinophenyl)-7-(piperidin-4-yloxy)quinazolin-2-amine] |  |
|  | < 5 |  |  | 5 to 10 | NS(=O)(=O)c1ccc(Nc2ncc3cc(F)cc(-c4ccc(N5CCCC5)nc4)c3n2)cc1 [Compound 890, 4-(6-fluoro-8-(6-(pyrrolidin-1-yl)pyridin-3-yl)quinazolin-2-ylamino)benzenesulfonamide] |  |
|  | < 5 |  |  | < 5 | CC(=O)NCCNc1ccc(-c2cc(F)cc3cnc(Nc4ccc(S(N)(=O)=O)cc4)nc23)cn1 [Compound 891, N-(2-(5-(6-fluoro-2-(4-sulfamoylphenylamino)quinazolin-8-yl)pyridin-2-ylamino)ethyl)acetamide] |  |
|  | < 5 |  |  | 5 to 10 | NS(=O)(=O)c1ccc(Nc2ncc3cccc(Nc4cccnc4)c3n2)cc1 [Compound 895, 4-(8-(pyridin-3-ylamino)quinazolin-2-ylamino)benzenesulfonamide] |  |
|  | < 5 |  |  | < 5 | NS(=O)(=O)c1ccc(Nc2ncc3cccc(CN4CCNC(=O)C4)c3n2)cc1 [Compound 896, 4-(8-((3-oxopiperazin-1-yl)methyl)quinazolin-2-ylamino)benzenesulfonamide] |  |

| IC50 [1] [µM] | IC50 ([1]; PDK1 Kinase Alpha Screen Assay) [µM] | EC50 [2, 4] [µM] | EC50 [3, 5] [µM] | EC50 [2, 6] [µM] | Compound | other results |
| --- | --- | --- | --- | --- | --- | --- |
|  | < 5 |  |  | < 5 | CC(C)NCc1cccc2cnc(Nc3ccc(S(N)(=O)=O)cc3)nc12 [Compound 897, 4-(8-((isopropylamino)methyl)quinazolin-2-ylamino)benzenesulfonamide] |  |
|  | < 5 |  |  | < 5 | Cn1cc(-c2ccc3cnc(Nc4ccc(S(N)(=O)=O)cc4)nc3c2-c2cnn(C)c2)cn1 [Compound 898, 4-(7,8-bis(1-methyl-1H-pyrazol-4-yl)quinazolin-2-ylamino)benzenesulfonamide] |  |
|  | < 5 |  |  | < 5 | NS(=O)(=O)c1ccc(Nc2ncc3ccc(-c4cccnc4)c(-c4cccnc4)c3n2)cc1 [Compound 899, 4-(7,8-di(pyridin-3-yl)quinazolin-2-ylamino)benzenesulfonamide] |  |
|  | < 5 |  |  | 5 to 10 | Nc1ccc(-c2ccc3cnc(Nc4ccc(S(N)(=O)=O)cc4)nc3c2-c2ccc(N)nc2)cn1 [Compound 900, 4-(7,8-bis(6-aminopyridin-3-yl)quinazolin-2-ylamino)benzenesulfonamide] |  |
|  | < 5 |  |  | < 5 | NS(=O)(=O)c1ccc(Nc2ncc3cccc(CNCc4ccccc4)c3n2)cc1 [Compound 901, 4-(8-((benzylamino)methyl)quinazolin-2-ylamino)benzenesulfonamide] |  |
|  | < 5 |  |  | < 5 | NS(=O)(=O)c1ccc(Nc2ncc3cccc(CN4CCCC4)c3n2)cc1 [Compound 903, 4-(8-(pyrrolidin-1-ylmethyl)quinazolin-2-ylamino)benzenesulfonamide] |  |
|  | < 5 |  |  | < 5 | NS(=O)(=O)c1ccc(Nc2ncc3ccc(-c4ccc(F)nc4)c(-c4ccc(F)nc4)c3n2)cc1 [Compound 912, 4-(7,8-bis(6-fluoropyridin-3-yl)quinazolin-2-ylamino)benzenesulfonamide] |  |
| < 5 |  |  |  |  | CCN(CC)Cc1cccc2cnc(Nc3ccc(S(N)(=O)=O)cc3)nc12 [Compound 916, 4-(8-((diethylamino)methyl)quinazolin-2-ylamino)benzenesulfonamide] | EC50 ([2]; A2780 cells): < 5 µM |
| < 5 |  |  |  |  | NS(=O)(=O)c1ccc(Nc2ncc3cccc(CNCc4cccnc4)c3n2)cc1 [Compound 917, 4-(8-((pyridin-3-ylmethylamino)methyl)quinazolin-2-ylamino)benzenesulfonamide] | EC50 ([2]; A2780 cells): < 5 µM |
| < 5 |  |  |  |  | NS(=O)(=O)c1ccc(Nc2ncc3cccc(CNCCc4cnc[nH]4)c3n2)cc1 [Compound 918, 4-(8-((2-(1H-imidazol-5-yl)ethylamino)methyl)quinazolin-2-ylamino)benzenesulfonamide] | EC50 ([2]; A2780 cells): 5 to 10 µM |
| < 5 |  |  |  |  | NC(=O)C1CCN(Cc2cccc3cnc(Nc4ccc(S(N)(=O)=O)cc4)nc23)CC1 [Compound 919, 1-((2-(4-sulfamoylphenylamino)quinazolin-8-yl)methyl)piperidine-4-carboxamide] | EC50 ([2]; A2780 cells): 5 to 10 µM |
| < 5 |  |  |  |  | NS(=O)(=O)c1ccc(Nc2ncc3cccc(CNC4CCOCC4)c3n2)cc1 [Compound 920] | EC50 ([2]; A2780 cells): < 5 µM |
| < 5 |  |  |  |  | NS(=O)(=O)c1ccc(Nc2ncc3cccc(CNC4CCCCC4)c3n2)cc1 [Compound 921, 4-(8-((cyclohexylamino)methyl)quinazolin-2-ylamino)benzenesulfonamide] | EC50 ([2]; A2780 cells): < 5 µM |
| < 5 |  |  |  |  | NS(=O)(=O)c1ccc(Nc2ncc3cccc(CNCC4CCCO4)c3n2)cc1 (centres unmarked) [Compound 922, 4-(8-(((tetrahydrofuran-2-yl)methylamino)methyl)quinazolin-2-ylamino)benzenesulfonamide] | EC50 ([2]; A2780 cells): < 5 µM |
| < 5 |  |  |  |  | NS(=O)(=O)c1ccc(Nc2ncc3cccc(CN4CCc5ccccc5C4)c3n2)cc1 [Compound 923, 4-(8-((3,4-dihydroisoquinolin-2(1H)-yl)methyl)quinazolin-2-ylamino)benzenesulfonamide] | EC50 ([2]; A2780 cells): < 5 µM |
| < 5 |  |  |  |  | CC(=O)N1CCN(Cc2cccc3cnc(Nc4ccc(S(N)(=O)=O)cc4)nc23)CC1 [Compound 924, 4-(8-((4-acetylpiperazin-1-yl)methyl)quinazolin-2-ylamino)benzenesulfonamide] | EC50 ([2]; A2780 cells): < 5 µM |
